US7179825B2, “Retinoic acid mimetic anilides” (Janssen Pharmaceutica N.V., priority 1997, dated 2007)

Legend:
[1] = test system: metabolism of retinoic acid in human breast cancer cells; test: Inhibition of retinoic acid (RA) metabolism (Example C.1); format: cell-based; details: MCF-7 human breast cancer cells, 3H-RA as substrate, concentration needed to reduce the amount of metabolites to 50% of the control
From the text: The property to delay the metabolism of retinoic acid can be evidenced in various in vitro and in vivo experiments. A particular in vitro procedure is described in example C.1 and tests the inhibitory activity of the compounds of formula (I) on the metabolism of retinoic acid in human breast cancer cells. The compounds of the present invention were also effective in suppressing induced vaginal keratinization effects in ovariectomized rats as is described in example C.2.
Inhibition of Retinoic Acid (RA) Metabolism
MCF-7 human breast cancer cells were grown as stock cultures according to art-known protocols. One day before the experiment, RA is added to the stock cultures to stimulate RA-metabolism. At the start of the experiment, cell suspensions were incubated in a tissue culture medium containing ^3H-RA as the substrate. Different concentrations of the test compound (dissolved in 1% DMSO) were added to the incubation mixtures, and at the end of the incubation, the unmetabolized RA is separated from its polar metabolites. The fraction containing the polar ^3H-labelled metabolites was collected and counted in a scintillation counter. For each experiment, a control and a blank incubation were run in parallel. Table 22 list the IC50 value (defined as the concentration in M needed to reduce the amount of metabolites to 50% of the control).

[2] = test system: Ovariectomized rats; test: Vaginal keratinization test on ovariectomized rats (Example C.2); format: in vivo; details: estradiol undecylate induced keratinization, per os once daily on days 1-3, active dose = 50% of rats show complete suppression
Procedure, shortened: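 Ovariectomized rats given s.c. estradiol undecylate (100 μg per 100 g body weight in sesame oil), then oral compound once daily on days 1-3 (vehicle PEG 200). Vaginas assessed histologically one day after last dose; lowest active dose (mg/kg) is the dose giving complete keratinization suppression in 50% of rats.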

Row | SMILES | IC50 [1] [nM] | IC50 ([1]; MCF7) [nM] | LAD (lowest active dose) [2] [mg/kg]
1 | CC(C=Cc1ccccc1)C(=O)Nc1ccc(C(C(C)C)n2ccnc2)cc1 (mixture of isomers) [Compound 165] | 10.8 |  | >20.00
2 | CC(C(=O)Nc1ccc(C(C(C)C)n2ccnc2)cc1)=C(c1ccccc1)c1cccnc1 (mixture of isomers) [Compound 171] | 85.8 |  | >10.00
3 | CC1C(C(=O)Nc2ccc(C(C(C)C)n3ccnc3)cc2)=Cc2ccccc21 (mixture of isomers) [Compound 180] | 56.9 |  | >10.00
4 | CC(C)C(c1ccc(NC(=O)C2CC2C)cc1)n1ccnc1 (mixture of isomers) [Compound 197] | 5.61 |  | >10.00
5 | CC(C)C(c1ccc(NC(=O)C2CC2c2ccccc2)cc1)n1ccnc1.O=C(O)C(=O)O (mixture of isomers) [Compound 204] | 4.58 |  | >10.00
6 | CC(C)C(c1ccc(NC(=O)C2COc3ccccc3C2)cc1)n1ccnc1 (mixture of isomers) [Compound 253] | 5.55 |  | >5.00
7 | CCC(C)C(c1ccc(NC(=O)C(C)=Cc2ccccc2)cc1)n1ccnc1 (mixture of isomers) [Compound 480] | 4.25 |  | 10.00
8 | CCCCC(CC)C(c1ccc(NC(=O)C(C)=Cc2ccccc2)cc1)n1ccnc1 (mixture of isomers) [Compound 493] | 8.77 |  | >2.50
9 | O=C(C=C(c1ccccc1)C1CCCCC1)Nc1ccc(C(c2ccc(Cl)cc2)n2ccnc2)cc1 (mixture of isomers) [Compound 514] | > 1000 |  | >20.00
10 | CC(C)C(=CC(=O)Nc1ccc(C(c2ccc(Cl)cc2)n2ccnc2)cc1)c1ccccc1 (mixture of isomers) [Compound 515] | > 1000 |  | >20.00
11 | CC(C(=O)Nc1ccc(C(C(C)C)n2ccnc2)cc1)=C(c1ccccc1)c1ccsc1 (mixture of isomers) [Compound 518] | > 100 |  | >10.00
12 | CCCC(=C(C)C(=O)Nc1ccc(C(C(C)C)n2ccnc2)cc1)c1ccccc1 (mixture of isomers) [Compound 519] | 3.8 |  | >10.00
13 | CC(C)C(c1ccc(NC(=O)C(c2ccccc2)C2CCCC2)cc1)n1ccnc1 (mixture of isomers) [Compound 659] | > 100 |  | >10.00
14 | CCC(C(=O)Nc1ccc(C(C(C)C)n2ccnc2)cc1)c1ccccc1 (mixture of isomers) [Compound 660] | 6.37 |  | >10.00
15 | CC(C)C(c1ccc(NC(=O)C(c2ccccc2)C2CCCCC2)cc1)n1ccnc1 (mixture of isomers) [Compound 661] | 34 |  | >10.00
16 | COC(C(=O)Nc1ccc(C(C(C)C)n2ccnc2)cc1)c1ccccc1 (mixture of isomers) [Compound 670] | 5.72 |  | >2.50
17 | CCCCCC(C)C(c1ccc(NC(=O)/C(C)=C/c2ccccc2)cc1)n1ccnc1 (single isomer, unassigned) [Compound 488] | > 100 |  | 
18 | CCC(CC)C(c1ccc(NC(=O)C(O)c2ccc(Cl)cc2)cc1)n1ccnc1 (centres unmarked) [Compound 54] | 4.86 |  | 
19 | CC(C)C(c1ccc(NC(=O)Cc2ccc(N=[N+]=[N-])c(I)c2)cc1)n1ccnc1 (centres unmarked) [Compound 259, (B)-4-azido-N-[4-[1-(1H-imidazol-1-yl)-2-methylpropyl]phenyl]-3-iodobenzenacetamide] | 9.29 |  | 
20 | CC(=O)Nc1ccc(C(c2cccc(F)c2)n2cncn2)cc1 (centres unmarked) [Compound 616] | > 1000 |  | 
21 | C/C(=C\c1ccccc1)C(=O)Nc1ccc(C(c2cccc(F)c2)n2cncn2)cc1 (centres unmarked) [Compound 620] | > 1000 |  | 
22 | CC(C)C(c1ccc(NC(=O)Nc2cccc(F)c2)cc1)c1ccccn1 (centres unmarked) [Compound 691] | > 100 |  | 
23 | CC(C)C(c1ccc(NC(=N)Nc2cccc(F)c2)cc1)n1ccnc1 (centres unmarked) [Compound 744, N′-(3-fluorophenyl)-N-[4-[1-(1H-imidazol-1-yl)-2-methylpropyl]phenyl]guanidine] |  | > 100 | 
24 | CCC(CC)C(c1ccc(NC(=O)Cc2cccc(O)c2)cc1)n1ccnc1 (centres unmarked) [Compound 780, (A)-N-[4-[2-ethyl-1-(1H-imidazol-1-yl)butyl]phenyl]-3-hydroxybenzeneacetamide ethanedioate (1:1)] | 4.57 |  | 

More lines, in order of falling IC50 [1], values ahead:

Row | IC50 [1] [nM] | IC50 ([1]; MCF7) [nM] | SMILES | LAD (lowest active dose) [2] [mg/kg]
25 | 3.59 |  | CC(CC#N)C(c1ccc(NC(=O)Cc2ccc(Cl)cc2)cc1)n1ccnc1 (mixture of isomers) [Compound 371] | 10.00
26 | 3.24 |  | CCC(CC)C(c1ccc(NC(=O)Cc2cccc(O)c2)cc1)n1ccnc1 (centres unmarked) [Compound 781, (B)-N-[4-[2-ethyl-1-(1H-imidazol-1-yl)butyl]phenyl]-3-hydroxy-benzeneacetamide ethanedioate (1:1)] | 
27 | 3.03 |  | CC(C)C(c1ccc(NC(=O)Cc2ccc(N)cc2)cc1)n1ccnc1 (centres unmarked) [Compound 145, (A)-4-amino-N-[4-[1-(1H-imidazol-1-yl)-2-methylpropyl]phenyl]benzeneacetamide] | 
28 | 2.63 |  | CCC(CC)C(c1ccc(NC(=O)C(O)c2ccc(C)c(C)c2)cc1)n1cncn1 (mixture of isomers) [Compound 11] | >2.50
29 | 2.17 |  | CCC(C)C(c1ccc(NC(=O)Cc2ccc(OC)c(OC)c2)cc1)n1cncn1 (mixture of isomers) [Compound 640] | >2.50
30 | 1.65 |  | CCC(CC)C(c1ccc(NC(=O)c2ccc(OC)c(OC)c2)cc1)n1cncn1 (racemic) [Compound 6] | 2.50
31 | 1.55 |  | CCC(CC)C(c1ccc(NC(=O)CCc2ccc(OC)c(OC)c2)cc1)n1cncn1 (racemic) [Compound 10] | 2.50
32 | 1.01 |  | CCC(CC)C(c1ccc(NC(=O)C2COc3ccccc3C2)cc1)n1ccnc1 (mixture of isomers) [Compound 33] | 5.00
33 | 0.79 |  | CCC(CC)C(c1ccc(NC(=O)Cc2ccc3c(c2)OCCO3)cc1)n1cncn1 (racemic) [Compound 7] | >2.50
34 | 0.503 |  | CCC(CC)C(c1ccc(NC(=O)C2COc3ccccc3O2)cc1)n1ccnc1 (mixture of isomers) [Compound 23] | 2.50
35 | 0.27 |  | CCC(CC)C(c1ccc(NC(=O)Cc2ccc3c(c2)OCO3)cc1)n1cncn1 (racemic) [Compound 5] | >2.50
36 | 0.201 |  | CCC(CC)C(c1ccc(NC(=O)CC2COc3ccccc3O2)cc1)n1ccnc1 (mixture of isomers) [Compound 26] | 5.00
37 | 0.138 |  | CCC(CC)C(c1ccc(NC(C)=O)cc1)n1cncn1 (centres unmarked) [Compound 1] | 
38 | 0.03 |  | CCC(CC)C(c1ccc(NC(=O)/C(C)=C/c2ccccc2)cc1)n1cncn1 (racemic) [Compound 2] | 5.00
